Assay results reported in patent publication US20220280462A1, “SOLID ORAL DOSAGE FORM COMPRISING NAPROXEN AND VITAMIN B1” (DSM IP ASSETS B.V., priority 2019, published 2022).
Structures can show the parent of a compound that is named as a salt.

Assay: Bulk density, tapped density and Carr Index (flowability) of powders and granules
Assay type: physicochemical
Conditions: for Carr Index: 100×(1−BD/TD), greater than 25 indicates poor flowability
Experimental: The Carr Index is calculated by the formula 100×(1−BD/TD) and is used as an indication of the flowability.

Compound | Description (appearance of powder) | flowability (in words, from Carr Index) | BD (bulk density) | TD (tapped density) | Carr Index
COc1ccc2cc([C@H](C)C(=O)O)ccc2c1 [Naproxen Sodium, naproxen sodium] | very lumpy | poor flowability | – | – | –
Cc1ncc(CO)c(CO)c1O.Cl [Pyridoxine Hydrochloride, pyridoxine hydrochloride] | – | – | 0.44 g/mL | 0.62 g/mL | 30
Cc1ncc(C[n+]2csc(CCO)c2C)c(N)n1 [Thiamine hydrochloride, thiamine hydrochloride] | – | – | 0.26 g/mL | 0.46 g/mL | 44
